# According to US20050163775A1, “Combination therapy for B cell disorders” (Genentech, Inc., priority 2003, published 2005):
# How the values were obtained:
# B cells = settings: peripheral blood, lymph nodes, bone marrow; cited from earlier work
# [1] = tested on: T-independent B cell response; assay: T-independent immune response to Streptococcus pneumoniae IV after B cell depletion; assay type: in vivo, mouse; settings: mAb day 0, S. pneumoniae IV i.v. day 7, response day 11
# Procedure: On the 3 panels at the right, the spleen cells were stained for the streptococcus polysaccharide-phosphatidyl choline (the TI antigen). CD138 is a marker for plasma cells.
# Next, it was determined whether upon B cell depletion, the mice were able to develop T independent immune response. […] At day 7, the mice were injected i.v. with Streptococcus pneumoniae IV to induce a response to the polysaccharide.
# lymphoid B cell lines = settings: binds human complement; cited from earlier work
substance,measurement,setting,value
rituximab [Rituxan],B cell depletion,B cells,"depletes B cells from the peripheral blood, lymph nodes, and bone marrow"
same,B cell response from the marginal zone and germinal centers of the spleen to T-independent antigen,[1],did not affect the B cell response
same,complement-dependent cytotoxicity (CDC),lymphoid B cell lines,lyses lymphoid B cell lines through complement-dependent cytotoxicity (CDC)
